Results reported in US4444780A, “Method for treating atopic dermatitis” (priority 1982, dated 1984).
pIC50: −log10 of the molar value. Entries after “also recorded” stand apart in the source; their conditions may differ. Where two headings read alike, the source gives them in different places.

Tests used:
Δ5 -lipoxygenase = molecular target: T1, Δ5 -lipoxygenase (Rattus norvegicus, UniProt P12527); assay: Lipoxygenase activity in Rat Basophilic Leukemia Cells (RBL-1), 5-HETE formation; assay type: cell-based; conditions: for effect on lipoxygenase activity (in words): rat basophilic cells
T1 construct: Crude cell extract was used as the source of the Δ5 -lipoxygenase enzyme; endogenous in cells; host or cells: RBL-1 (rat basophilic leukemia) cells, whole or sonicated crude extract
T1 sequence (P12527 1-673): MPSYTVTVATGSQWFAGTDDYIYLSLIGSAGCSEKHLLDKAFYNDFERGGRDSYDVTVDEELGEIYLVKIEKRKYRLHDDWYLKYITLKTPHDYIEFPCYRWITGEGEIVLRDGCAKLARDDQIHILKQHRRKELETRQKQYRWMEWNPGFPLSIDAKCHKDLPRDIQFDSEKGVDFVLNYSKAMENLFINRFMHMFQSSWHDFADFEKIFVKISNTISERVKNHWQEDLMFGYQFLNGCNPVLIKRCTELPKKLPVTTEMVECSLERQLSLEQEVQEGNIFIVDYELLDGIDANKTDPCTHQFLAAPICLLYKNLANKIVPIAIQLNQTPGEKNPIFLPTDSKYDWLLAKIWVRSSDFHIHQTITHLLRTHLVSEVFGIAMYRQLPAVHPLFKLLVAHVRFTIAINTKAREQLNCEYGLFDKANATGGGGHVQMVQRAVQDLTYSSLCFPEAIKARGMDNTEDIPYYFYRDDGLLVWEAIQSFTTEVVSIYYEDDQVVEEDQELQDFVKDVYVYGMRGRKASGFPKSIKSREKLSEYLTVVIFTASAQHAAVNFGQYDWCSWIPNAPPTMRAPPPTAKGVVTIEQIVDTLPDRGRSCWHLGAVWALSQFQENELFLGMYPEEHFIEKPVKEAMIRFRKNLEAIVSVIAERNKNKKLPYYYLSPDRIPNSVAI
Experimental: Rat basophilic leukemia cells (RBL-1) are basophilic members of the leukocyte series and constitute a circulating form of the mast cell, i.e. they share many or all of the biochemical features of the mast cell involved in mediator release. As leukemic cells they are readily available as they can be grown in culture. RBL-1 cells were grown in minimal essential medium (MEM) containing 10% fetal calf serum, 5% calf serum, 2 mM glutamine, and 50 μg/ml gentamicin. The cells were harvested for each assay, washed once with 50 mM potassium phosphate, 1 mM EDTA, and 0.1% gelatin, pH=7.0. The cells were then resuspended to a concentration of 1.85×10^7 cells/ml. For broken cell assays (i.e. to measure direct effects on the enzyme), these cells were sonicated in an ultrasonic sonifier for 3 minutes while maintaining the sample temperature at 4° C. Crude cell extract was used as the source of the Δ5 -lipoxygenase enzyme. […] The reaction was stopped by the addition of 1 M citric acid to give a final pH of approximately 3.5. The reaction mixture was extracted with diethylether, brought to dryness under a stream of nitrogen and the residues were resuspended and spotted on Gilman ITLC silica gel-impregnated glass filter strips. Synthetic hydroxyeicosotetraenoic acid (5-HETE) standard was spotted with each sample and the sheets were developed in isoctane:2-butanone:glacial acetic acid (100:9:1). After development, the sheets were dried, and the 5-HETE standard was visualized in a tank of iodine crystals. Areas corresponding to 5-HETE were quantitated by liquid scintillation counting. The remainder of each lane was also counted in four sections. Activity was determined as the percent conversion of the total counts in each lane to the area corresponding to 5-HETE. Percent inhibition was calculated from the change in percent conversion in the presence of drug. Blanks determined in the presence of boiled cells were subtracted from all values.

[1] = tested on: K^+ -Stimulated Ca^++ -mediated Contractions of Rabbit Aortic Strips; assay: Potassium-Induced Calcium-Mediated Contraction of Aortic Strips; assay type: cell-based, New Zealand strain rabbits; conditions: for pIC50: Oryctolagus cuniculus, read-out: IC50, K+-stimulated Ca++-mediated contractions
Excerpt: New Zealand strain rabbits (1-1.5 kg) were sacrificed by cervical dislocation and the thoracic cavity was opened to expose a section of the aorta. A section of the aorta from the diaphragm to the aortic arch was isolated, dissected out and immediately placed in chilled Krebs bicarbonate buffer solution. A 2 inch section of the aorta was supported on a glass rod in a petri dish with chilled Krebs bicarbonate solution and cleaned of excess tissue. The aorta was then cut into helical strips (3×30 mm) and suspended from a FT03 isometric force displacement transducer coupled to a Beckman recorder. The tissue bath was filled with Krebs bicarbonate buffer maintained at 37° C. and bubbled with 95% 02 and 5% CO2. The helical strips were allowed to equilibrate for 1.5 to 2 hours with a 4 gram resting load. The tissues were dosed in a cumulative manner with 10 mM, 15 mM, 20 mM, 30 mM, 40 mM, 80 mM and 120 mM KCl. The tissues were washed several times after the KCl treatment and were allowed to equilibrate for 1-1.5 hours until a baseline equivalent to 4 grams tension was achieved. A second dose-response to KCl was repeated and again washed and allowed to equilibrate. […] Changes in grams tension were recorded.

[2] = tested on: passive cutaneous anaphylaxis reaction; assay: Passive Cutaneous Anaphylaxis Test (PCA), topical antiallergic activity; assay type: in vivo, Male Sprague Dawley rats; conditions: for inhibition in vivo at 0.01 % / inhibition in vivo at 1 % / inhibition in vivo at 0.02 % / inhibition in vivo at 0.2 % / inhibition in vivo at 2 %: Rattus norvegicus, read-out: Percent Inhibition
Excerpt: Male Sprague Dawley rats (175-200 grams) were sensitized intradermally with 0.1 cc of high dilution of antiovalbumin antiserum (IgE-containing) that was predetermined to cause a well circumscribed and reproducible skin wheal response. Two intradermal sensitization sites were applied to the backs of each rat. […] One hour later the rats were challenged intravenously with a solution containing 0.5% ovalbumin and 0.5% Evans blue dye in a saline vehicle. Twenty minutes later the rats were killed by carbon dioxide asphyxiation, the dorsal skin reflected and the blue wheal measured as the mean of the two largest perpendiculars. This mean was used to calculate the area of the wheal according to [A=π(d/2)^2 ]. The wheal area under the drug-treated site was used as an index of local topical activity and the distant site served as an index of systemic activity.

[3] = tested on: K^+ -stimulated Ca^++ -uptake in rabbit aortic slices; assay: Calcium Uptake in Rabbit Aorta (K+-stimulated Ca++ uptake in aortic slices); assay type: cell-based, New Zealand white rabbits; conditions: for inhibition of K+-stimulated Ca++ uptake (in words): rabbit aortic slices, FIG. 2; for effects on calcium mechanisms / calcium movement assays (in words): summary over aortic uptake and contraction assays
Experimental: Female, New Zealand white rabbits (1-2 kg) were sacrificed by cervical dislocation, and the thoracic […] was immediately removed, cleaned, and sliced into rings (5-20 mg). The tissue was preincubated at 37° C. for 60 minutes. […] After allowing radioactive calcium uptake to occur for 45 minutes, the reaction was stopped by transferring the tissue to a wash-out solution containing 80 mM LaCl3 for 30 minutes. The tissue was removed, blotted of excess moisture, and weighed. The aortic slices were then placed into scintillation vials containing 1 ml Protosol tissue solubilizer and incubated overnight at 55° C. After coding and acidifying, the samples were counted to determine ^45 Ca uptake. Sample results were normalized to counts per minutes per mg, wet tissue weight.

[4] = RBL-1, 1 μM, read-out: % Inhibition of lipoxygenase activity
[5] = RBL-1, 100 μM, read-out: % Inhibition of lipoxygenase activity
[6] = RBL-1, read-out: % Inhibition of lipoxygenase activity

| Structure (SMILES) | effect on lipoxygenase activity (in words) (Δ5 -lipoxygenase) | inhibition of vascular contraction (in words) ([1]; rabbit aortic strips) | Significance (P < .05) of inhibition ([2]; Topical Dose 1.00%) | activity in the PCA test (in words) ([2]; topical) | inhibition at 100 µM (Δ5 -lipoxygenase; [6]) | inhibition in vivo at 0.02 % ([2]; Topical Dose 0.02%) | inhibition in vivo at 0.2 % ([2]; Topical Dose 0.20%) | inhibition in vivo at 2 % ([2]; Topical Dose 2.00%) | Significance (P < .05) of inhibition ([2]; Topical Dose 0.02%) | Significance (P < .05) of inhibition ([2]; Topical Dose 0.20%) | Significance (P < .05) of inhibition ([2]; Topical Dose 2.00%) | also measured |
| --- | --- | --- | --- | --- | --- | --- | --- | --- | --- | --- | --- | --- |
| OCCOCCN1CCN(C(c2ccccc2)c2ccc(Cl)cc2)CC1 (stereo not drawn) [Hydroxyzine, hydroxyzine] | totally inactive; also recorded: None of the compounds produced significant inhibition | orders of magnitude less potent | No | totally inactive | – | – | – | – | – | – | – | inhibition at 1 µM (Δ5 -lipoxygenase; [4]): 0%; inhibition at 100 µM (Δ5 -lipoxygenase; [5]): 15%; pIC50 ([1]; rabbit aortic strips): 4.30; inhibition in vivo at 0.01 % ([2]; Topical Dose 0.01%): 0%; inhibition in vivo at 1 % ([2]; Topical Dose 1.00%): 0%; Significance (P < .05) of inhibition ([2]; Topical Dose 0.01%): No; Percent Inhibition ([2]; Topical Dose 0.10%): 9.7%; Significance (P < .05) of inhibition ([2]; Topical Dose 0.10%): No; inhibition of K+-stimulated Ca++ uptake (in words) [3]: did not produce 50% inhibition even at a concentration of an order of magnitude greater than the IC50 for cyproheptadine; effects on calcium mechanisms / calcium movement assays (in words) [3]: marginal effects |
| CC[C@@H](CO)NC(=O)[C@@H]1C=C2c3cccc4c3c(cn4C)C[C@H]2N(C)C1 [Methysergide, methysergide] | None of the compounds produced significant inhibition | – | – | – | 30% | – | – | – | – | – | – | inhibition at 1 µM (Δ5 -lipoxygenase; [6]): 1% |
| CN(C)CCOc1ccccc1Cc1ccccc1 [Phenyltoloxamine, phenyltoloxamine] | – | – | – | inactive | – | 2.6% | 14.3% | 25.9% | No | No | No | – |
| CN(C)CCC(c1ccc(Cl)cc1)c1ccccn1 (stereo not drawn) [Chlorpheniramine, chlorpheniramine] | totally inactive; also recorded: None of the compounds produced significant inhibition | – | – | totally inactive | – | 20% | 16.3% | 16.7% | No | No | No | inhibition at 1 µM (Δ5 -lipoxygenase; [4]): 0%; inhibition at 100 µM (Δ5 -lipoxygenase; [5]): 1%; Inhibition of 45Ca++ Uptake Aortic Slices (summary grade) ([3]; Table 4 grade, symbols not defined): +; inhibition of K+-stimulated Ca++ uptake (in words) [3]: totally inactive; effects on calcium mechanisms / calcium movement assays (in words) [3]: marginal effects |
| COc1ccc(CCN(C)CCCC(C#N)(c2ccc(OC)c(OC)c2)C(C)C)cc1OC (stereo not drawn) [Verapamil, verapamil] | slight activity; also recorded: None of the compounds produced significant inhibition with the exception of the very high dose (1×10^-4 M) of verapamil | potent inhibitors | No | totally inactive | 51% | – | – | – | – | – | – | inhibition at 1 µM (Δ5 -lipoxygenase; [6]): 0%; pIC50 [1]: 6.26; inhibition in vivo at 1 % ([2]; topical): 0% |
| CN(C)CCOC(c1ccccc1)c1ccccc1 [Diphenhydramine, diphenhydramine] | – | – | – | inactive | – | 0% | 8.5% | 43.9% | No | No | No | – |
| CN1CCC(=C2c3ccccc3C=Cc3ccccc32)CC1 [Cyproheptadine, cyproheptadine] | statistically equipotent effects on lipoxygenase activity from either whole or broken cells | potent inhibitors | Yes | potent topical antiallergic effect | 78% | – | – | – | – | – | – | inhibition in vivo at 0.01 % ([2]; topical): 11.7%; inhibition in vivo at 1 % ([2]; topical): 98.1%; Significance (P < .05) of inhibition ([2]; Topical Dose 0.01%): No; Percent Inhibition ([2]; Topical Dose 0.10%): 25.0%; Significance (P < .05) of inhibition ([2]; Topical Dose 0.10%): Yes; topical ED50, inhibition in the PCA test ([2]; topical 0.1 ml, 1 hour before challenge, vehicle water/alcohol/N-decylmethylsulfoxide, 95% F.L. 0.07, 0.25): 0.13%; inhibition of cutaneous allergic reaction (in words) ([2]; topical, 1% dose): virtually complete inhibition; pIC50 ([3]; Oryctolagus cuniculus, read-out: IC50, K+-stimulated Ca++ uptake): ~6.00 |
| Fc1ccc(C(c2ccc(F)cc2)N2CCN(C/C=C/c3ccccc3)CC2)cc1 [Flunarizine, flunarizine] | – | – | – | inactive | – | 16.3% | 13% | 17.2% | No | No | No | – |
